Values of other authors in patent publication US12582591B2, “Increased solubilization of ethylhexyl triazone” (DSM IP Assets B.V., priority 2020, dated 2026).
Read-outs that look alike come from different tables or passages of the source.

Settings: for Solubility in esters and alcohols: particularly ethyl acetate, ethanol / alcohols
[1] = listed as UV-filter of the formula (I)

SMILES: CCCCC(CC)COC(=O)c1ccc(Nc2nc(Nc3ccc(C(=O)OCC(CC)CCCC)cc3)nc(Nc3ccc(C(=O)OCC(CC)CCCC)cc3)n2)cc1 (stereo not shown) [Ethylhexyl triazone, ethylhexyl triazone]
- Solubility in esters and alcohols: moderate solubility
- Solubility in esters and alcohols [1]: very soluble
- Solubility in water and alkanes: very low
- Solubility in water and alkanes [1]: insoluble
